Our source for the DC50 values is ChEMBL document CHEMBL5034043, “Bifunctional Compounds as SMARCA2 Degraders for Treating Cancer” (ACS Med Chem Lett, 2022).

Structures are written as SMILES.

In this assay the target is SWI/SNF-related matrix-associated actin-dependent regulator of chromatin subfamily A member 2 (Homo sapiens, UniProt P51531). The experiment in a line: Induction of degradation of HiBit-tagged SMARCA2 in human A549 cells incubated for 6 hrs by NanoGlo HiBiT lytic assay. It counts as cell-based. (In general: With HiBiT, luminescence reflects the tagged protein that the partner subunit can reach.)
Chain of SWI/SNF-related matrix-associated actin-dependent regulator of chromatin subfamily A member 2 (P51531 whole entry): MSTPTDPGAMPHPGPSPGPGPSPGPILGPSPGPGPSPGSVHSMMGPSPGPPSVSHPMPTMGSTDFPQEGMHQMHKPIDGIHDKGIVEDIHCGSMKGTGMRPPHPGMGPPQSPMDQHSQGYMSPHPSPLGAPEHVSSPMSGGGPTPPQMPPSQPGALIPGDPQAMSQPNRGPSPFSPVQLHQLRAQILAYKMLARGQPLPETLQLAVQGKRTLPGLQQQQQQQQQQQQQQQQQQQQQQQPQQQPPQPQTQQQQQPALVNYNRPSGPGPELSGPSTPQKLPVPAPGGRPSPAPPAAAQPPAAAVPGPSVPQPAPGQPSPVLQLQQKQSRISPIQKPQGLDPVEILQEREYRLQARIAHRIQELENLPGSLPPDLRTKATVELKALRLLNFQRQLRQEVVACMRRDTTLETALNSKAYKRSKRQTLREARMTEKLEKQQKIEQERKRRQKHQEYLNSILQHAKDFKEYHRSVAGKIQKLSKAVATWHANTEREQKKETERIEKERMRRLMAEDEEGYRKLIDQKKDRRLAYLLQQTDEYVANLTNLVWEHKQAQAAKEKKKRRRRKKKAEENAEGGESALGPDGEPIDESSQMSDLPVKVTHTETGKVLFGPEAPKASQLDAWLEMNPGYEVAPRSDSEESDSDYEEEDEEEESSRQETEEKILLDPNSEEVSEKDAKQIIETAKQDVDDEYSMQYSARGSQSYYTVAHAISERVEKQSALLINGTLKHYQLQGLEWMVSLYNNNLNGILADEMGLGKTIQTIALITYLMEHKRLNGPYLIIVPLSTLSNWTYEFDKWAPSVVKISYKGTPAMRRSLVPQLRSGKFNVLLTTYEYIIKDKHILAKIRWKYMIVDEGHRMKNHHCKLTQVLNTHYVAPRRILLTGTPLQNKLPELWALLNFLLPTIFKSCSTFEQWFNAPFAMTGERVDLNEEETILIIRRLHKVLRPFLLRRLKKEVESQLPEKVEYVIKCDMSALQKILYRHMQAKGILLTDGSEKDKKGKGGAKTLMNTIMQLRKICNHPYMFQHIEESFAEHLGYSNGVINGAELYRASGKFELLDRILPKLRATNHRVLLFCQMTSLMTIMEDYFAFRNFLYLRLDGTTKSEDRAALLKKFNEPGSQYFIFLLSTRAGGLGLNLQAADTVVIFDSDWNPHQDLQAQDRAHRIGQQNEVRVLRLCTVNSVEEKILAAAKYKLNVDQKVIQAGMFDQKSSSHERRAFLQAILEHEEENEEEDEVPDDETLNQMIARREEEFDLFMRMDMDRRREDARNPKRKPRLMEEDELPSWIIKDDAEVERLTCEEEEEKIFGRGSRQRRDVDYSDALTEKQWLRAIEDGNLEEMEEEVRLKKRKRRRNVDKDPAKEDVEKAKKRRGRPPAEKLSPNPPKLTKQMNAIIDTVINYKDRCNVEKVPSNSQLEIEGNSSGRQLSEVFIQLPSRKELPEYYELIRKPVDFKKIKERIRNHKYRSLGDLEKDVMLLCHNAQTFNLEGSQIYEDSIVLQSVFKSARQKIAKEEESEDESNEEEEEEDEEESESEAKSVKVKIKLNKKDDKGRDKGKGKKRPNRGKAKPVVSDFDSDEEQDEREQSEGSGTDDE
The term DC50 denotes the midpoint of the concentration-degradation curve. As for `Nc1nnc(-c2ccccc2O)cc1N1CC2CCC(C1)N2c1cccc(OCCN2CCN(CC3CCN(c4ccc5c(c4)C(=O)N(C4CCC(=O)NC4=O)C5=O)CC3)CC2)c1` (stereo unspecified), it took 2 nM to reach half-maximal degradation (DC50).

Take `Nc1nnc(-c2cc(F)ccc2O)cc1N1CC2CCC(C1)N2c1cccc(CN2CCN(C(=O)C3CCN(c4ccc5c(c4)C(=O)N(C4CCC(=O)NC4=O)C5=O)CC3)CC2)c1` (stereo unspecified): the 50% degradation concentration (DC50) came out at 3 nM.

Compound `Nc1nnc(-c2ccccc2O)cc1N1CCC(C(=O)N2CCC(C(=O)N3CCN(c4ccc(C5CCC(=O)NC5=O)cc4)CC3)CC2)(c2ccccc2)CC1` (stereo unspecified) had a DC50 of 3 nM.

In turn, `Nc1nnc(-c2ccccc2O)cc1N1CC(Oc2cccc(CN3CCN(C(=O)CN4CCC(c5ccc(NC6CCC(=O)NC6=O)cc5)CC4)CC3)c2)C1` (stereo unspecified) had a DC50 of 3 nM.

As for `Nc1nnc(-c2ccccc2O)cc1N1CC2CCC(C1)N2c1cccc(OCCN2CCN(CCCC3CCN(c4ccc5c(c4)C(=O)N(C4CCC(=O)NC4=O)C5=O)CC3)CC2)c1` (stereo unspecified), the 50% degradation concentration (DC50) turned out to be 2 nM.

`Nc1nnc(-c2ccccc2O)cc1N1CCN(c2cccc(CN3CCN(C(=O)C4CCN(c5ccc6c(c5)C(=O)N(C5CCC(=O)NC5=O)C6=O)CC4)CC3)c2)C2(CC2)C1` (stereo unspecified) registered a half-maximal degradation concentration (DC50) of 4 nM.
